According to patent US20230139826A1 (NONO INC., priority 2020, published 2023):
Marks after values point to notes of the source that are not given here. Residues, ends and D or L forms follow the SMILES beside them.

Test system: acute ischemic stroke
Assay: ESCAPE-NA1 trial: efficacy of intravenous nerinetide in patients with acute ischemic stroke undergoing thrombectomy
Type: in vivo, human
Procedure: ESCAPE-NA1 was a multicenter, randomized, double-blinded, placebo-controlled, parallel group, single-dose study to determine the efficacy and safety of intravenous nerinetide in patients with acute ischemic stroke who were selected to undergo thrombectomy. Patients were randomized in a 1:1 ratio to receive a single, 2.6 mg/kg (up to a maximum dose of 270 mg) intravenous dose of nerinetide or saline placebo delivered over 10+1 minutes. Nerinetide and placebo were prepared as colorless solutions in numbered, refrigerated vials.
Randomization in a 1:1 ratio to nerinetide or placebo occurred using a real-time, dynamic, Internet-based, stratified randomized minimization procedure. Stratification occurred on the use of intravenous alteplase (yes/no) and declared initial thrombectomy device (stent-retriever or aspiration device). The choice to stratify was based upon the possibility of drug-drug or drug-device interactions. Randomized minimization occurring within strata aimed to achieve distribution balance with regard to age, sex, baseline National Institutes of Health Stroke Scale (NIHSS) score (range, 0 to 42, with higher scores indicating greater stroke severity), site of arterial occlusion, baseline Alberta Stroke Program Early Computed Tomography Score (ASPECTS; range, 0 to 10, with 1 point subtracted for any evidence of early ischemic change in each defined region on the CT scan) and clinical site.
Eligible patients were adults aged 18 or greater with a disabling ischemic stroke at the time of randomization (baseline NIHSS>5), who had been functioning independently in the community (Barthel Index score>90 [range, 0 to 100, with higher scores indicating a greater ability to complete activities of daily living])^1 before the stroke. Enrollment occurred up to 12 hours after the onset of stroke symptoms (last-seen-well time). Non-contrast CT and multiphase CTA were performed at the thrombectomy center to identify patients with a confirmed proximal intracranial artery occlusion, defined as the intracranial internal carotid artery or the first segment of the middle cerebral artery or both.
After qualifying imaging, patients were treated with rapid EVT using currently available devices. Some patients received intravenous alteplase according to usual care following national or regional guidelines, before or during EVT, at a primary hospital prior to transfer or at the endovascular center. Interpretation of treatment guidelines was at the discretion of the treating team. Patients treated with alteplase more than 4.5 hours from stroke onset were not excluded from the trial for this reason alone. Patients had to meet inclusion and exclusion criteria at the EVT hospital. Patients received trial drug, as a single dose of 2.6 mg/kg to a maximum dose of 270 mg, based upon estimated or actual weight (if known) using a dedicated intravenous line. The trial drug was administered as soon as possible after randomization.
Time targets were imaging to randomization 30 minutes, imaging to study drug administration ≤60 minutes, and imaging to arterial access/puncture ≤60 minutes. Targets from imaging to reperfusion were 90th percentile ≤90 minutes and a median at ≤75 minutes. In general, the order of events was imaging to determine eligibility for EVT treatment, study randomization, administration of alteplase (in some patients), administration of nerinetide, and performance of EVT.
The primary outcome was good outcome as defined by a score of 0-2 on the modified Rankin scale (mRS) (range, 0 [no symptoms] to 6 [death]) for the assessment of neurologic functional disability^2 assessed in person or, if an in-person visit was not possible, by telephone, at 90 days after randomization by personnel certified in the scoring of the mRS. […]

[1] = Alteplase stratum, nerinetide n = 330
[2] = No Alteplase stratum, nerinetide n = 219
[3] = No Alteplase stratum, nerinetide n = 219, missing imputed as deaths
[4] = all patients (ITT), nerinetide vs placebo, 90 days
[5] = all patients, nerinetide group n = 549, 90 days
[6] = all patients, nerinetide vs placebo

For `CC[C@H](C)[C@H](NC(=O)[C@H](CO)NC(=O)[C@H](CO)NC(=O)[C@H](CC(C)C)NC(=O)[C@H](CCCCN)NC(=O)[C@H](CCCN=C(N)N)NC(=O)[C@H](CCCN=C(N)N)NC(=O)[C@H](CCCN=C(N)N)NC(=O)[C@H](CCC(N)=O)NC(=O)[C@H](CCCN=C(N)N)NC(=O)[C@H](CCCN=C(N)N)NC(=O)[C@H](CCCCN)NC(=O)[C@H](CCCCN)NC(=O)[C@H](CCCN=C(N)N)NC(=O)CNC(=O)[C@@H](N)Cc1ccc(O)cc1)C(=O)N[C@@H](CCC(=O)O)C(=O)N[C@@H](CO)C(=O)N[C@@H](CC(=O)O)C(=O)N[C@H](C(=O)O)C(C)C` [Nerinetide] (H-YGRKKRRQRRRKLSSIESDV-OH), the “BI 95-100, unadjusted RR (CI95)” value (Alteplase stratum) was 0.96 (0.86-1.07), the “Deaths without imputation, RR” value (Alteplase stratum) was 1.24 and the “Infarct volume (cubic root transformation), beta coefficient” value (Alteplase stratum) was 0.20 (−0.56 to 0.95)** ml^1/3. For the same compound, the “Infarct volume (median)” value (Alteplase stratum) was 22.7 mL, the “Mortality, unadjusted RR (CI95)” value (Alteplase stratum) was 1.14 (0.74-1.76) and the “NIHSS 0-2, unadjusted RR (CI95)” value (Alteplase stratum) was 0.92 (0.81-1.04). The “mRS 0-1, unadjusted RR (CI95)” value (Alteplase stratum) was 0.92 (0.77-1.10), the “mRS 0-2, unadjusted RR (CI95)” value (Alteplase stratum) was 0.96 (0.85-1.07) and the “BI 95-100, adjusted risk ratio (95% confidence interval)” value (Alteplase stratum (n = 659)) was 0.97 (0.88-1.08). For the same compound, the “Mortality, adjusted risk ratio (95% confidence interval)” value (Alteplase stratum (n = 659)) was 1.08 (0.70-1.66), the “NIHSS 0-2, adjusted risk ratio (95% confidence interval)” value (Alteplase stratum (n = 659)) was 0.92 (0.82-1.04) and the “mRS 0-1, adjusted risk ratio (95% confidence interval)” value (Alteplase stratum (n = 659)) was 0.91 (0.78-1.08). The “mRS 0-2, adjusted risk ratio (95% confidence interval)” value (Alteplase stratum (n = 659), nerinetide vs placebo, 90 days) was 0.97 (0.87-1.08), the “mRS 0-2, adjusted risk ratio (95% confidence interval)” value (Alteplase stratum (n = 659), nerinetide vs placebo, 90 days, listed as nerinetide) was 0.97 and the “BI 95-100, patients number (proportion)” value [1] was 213 (64.5%). For the same compound, the “Mortality, patients number (proportion)” value [1] was 39 (11.8%), the “NIHSS 0-2, patients number (proportion)” value [1] was 191 (57.9%) and the “mRS 0-1, patients number (proportion)” value [1] was 138 (41.8%). The “mRS 0-2, patients number (proportion)” value [1] was 207 (62.7%), the “mRS 0-2, patients number (proportion)” value (Alteplase stratum, nerinetide n = 330, listed as nerinetide) was 62.7% and the “Infarct volume, absolute volume difference of medians” value (Alteplase stratum, nerinetide vs placebo) was 1.6* ml. For the same compound, the “BI 95-100, unadjusted RR (CI95)” value (No Alteplase stratum) was 1.16 (0.98-1.38), the “Deaths without imputation, RR” value (No Alteplase stratum) was 0.60 and the “Infarct volume (cubic root transformation), beta coefficient” value (No Alteplase stratum) was −0.98 (−1.91 to −0.05)** ml^1/3. The “Infarct volume (median)” value (No Alteplase stratum) was 26.7 mL, the “Mortality, unadjusted RR (CI95)” value (No Alteplase stratum) was 0.63 (0.41-0.97) and the “NIHSS 0-2, unadjusted RR (CI95)” value (No Alteplase stratum) was 1.18 (1.00-1.40). The “mRS 0-1, unadjusted RR (CI95)” value (No Alteplase stratum) was 1.13 (0.88-1.45), the “mRS 0-2, unadjusted RR (CI95)” value (No Alteplase stratum) was 1.19 (1.01-1.41) and the “BI 95-100, adjusted risk ratio (95% confidence interval)” value (No Alteplase stratum (n = 446)) was 1.14 (0.97-1.34). The “Mortality, adjusted risk ratio (95% confidence interval)” value (No Alteplase stratum (n = 446)) was 0.66 (0.44-0.99), the “NIHSS 0-2, adjusted risk ratio (95% confidence interval)” value (No Alteplase stratum (n = 446)) was 1.14 (0.97-1.34) and the “mRS 0-1, adjusted risk ratio (95% confidence interval)” value (No Alteplase stratum (n = 446)) was 1.04 (0.82-1.31). For the same compound, the “mRS 0-2, adjusted risk ratio (95% confidence interval)” value (No Alteplase stratum (n = 446), nerinetide vs placebo, 90 days) was 1.18 (1.01-1.38), the “mRS 0-2, adjusted risk ratio (95% confidence interval)” value (No Alteplase stratum (n = 446), nerinetide vs placebo, 90 days, listed as nerinetide) was 1.18 and the “BI 95-100, number of patients” value [2] was 128. The “BI 95-100, proportion of patients” value [2] was “(58.4%)”, the “NIHSS 0-2, number of patients” value [2] was 129 and the “NIHSS 0-2, proportion of patients” value [2] was “(58.9%)”. The “mRS 0-1, number of patients” value [2] was 84, the “mRS 0-1, proportion of patients” value [2] was “(38.4%)” and the “mRS 0-2, number of patients” value [2] was 130. The “mRS 0-2, proportion of patients” value [2] was “(59.3%)”, the “Mortality, number of patients” value [3] was 28 and the “Mortality, proportion of patients” value [3] was “(12.8%)”. For the same compound, the “mRS 0-2, proportion of patients” value (No Alteplase stratum, nerinetide n = 219, listed as nerinetide) was 59.3%, the “Infarct volume, absolute volume difference of medians” value (No Alteplase stratum, nerinetide vs placebo) was −12.5* ml and the “mRS 0-2, adjusted risk ratio (95% confidence interval)” value (all patients (ITT), nerinetide 2.6 mg/kg iv vs placebo, 90 days) was 1.04 (0.96-1.14). For the same compound, the “mRS 0-2, adjusted risk ratio (95% confidence interval)” value (all patients (ITT), nerinetide 2.6 mg/kg iv vs placebo, 90 days, listed as nerinetide) was 1.04, the “BI 95-100, adjusted risk ratio (95% confidence interval)” value [4] was 1.03 (0.94-1.12) and the “Mortality, adjusted risk ratio (95% confidence interval)” value [4] was 0.84 (0.63-1.13). The “NIHSS 0-2, adjusted risk ratio (95% confidence interval)” value [4] was 1.01 (0.92-1.11), the “mRS 0-1, adjusted risk ratio (95% confidence interval)” value [4] was 0.98 (0.85-1.12) and the “Infarct volume (median)” value (all patients, 24-hour imaging) was 23.7 mL. For the same compound, the “Infarct volume (median)” value (all patients, 24-hour imaging, listed as nerinetide) was 26.0 (iqr 6.6-101.5) ml, the “BI 95-100, patients number (proportion)” value [5] was 341 (62.1%) and the “NIHSS 0-2, patients number (proportion)” value [5] was 320 (58.3%). For the same compound, the “mRS 0-1, patients number (proportion)” value [5] was 222 (40.4%), the “mRS 0-2, patients number (proportion)” value [5] was 337 (61.4%) and the “Mortality, patients number (proportion)” value (all patients, nerinetide group n = 549, 90 days, missing outcomes imputed as deaths) was 67 (12.2%). For the same compound, the “mRS 0-2, patients number (proportion)” value (all patients, nerinetide group n = 549, 90 days, listed as nerinetide) was 61.4%, the “Infarct volume (cubic root transformation), adjusted beta coefficient” value (all patients, nerinetide vs control, 24-hour imaging) was −0.29 (−0.87 to 0.30)** ml^1/3 and the “BI 95-100, unadjusted RR (CI95)” value [6] was 1.03 (0.94-1.13). The “Deaths without imputation, RR” value [6] was 0.87, the “Infarct volume, absolute volume difference of medians” value [6] was −2.3* ml and the “NIHSS 0-2, unadjusted RR (CI95)” value [6] was 1.01 (0.92-1.12). The “mRS 0-1, unadjusted RR (CI95)” value [6] was 0.99 (0.86-1.15), the “mRS 0-2, unadjusted RR (CI95)” value [6] was 1.04 (0.94-1.14) and the “Mortality, unadjusted RR (CI95)” value (all patients, nerinetide vs placebo, missing imputed as deaths) was 0.85 (0.63-1.15). The “Infarct volume, mean” value (alteplase group) was 73.3 mL, the “Infarct volume, mean” value (no alteplase group) was 67.8 mL and the Number-needed-to-treat (no-alteplase stratum) was 10-11 patients. For the same compound, the absolute benefit (no-alteplase stratum) was 9.4%, the “absolute risk reduction in mortality at 90 days” value (stratum that did not receive alteplase) was 7.5% and the “hazard of death, adj HR” value (stratum that did not receive alteplase, Cox model) was 0.56.
